Legend:
Test in all cases: relative viability (nuclei count vs DMSO), 5 days (fraction); higher = more cells survive
[1] = test system: HCC-366
Method in brief: (§1)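 Dosing by pin tool came one day after lung cancer cell lines were seeded in 1536-well plates, using either one drug or a fixed anchor-drug dose plus five library-drug doses (not always all listed) in √10 steps. After 5 days, nuclei were counted on 4× images. Relative viability is treated-well nuclei count divided by vehicle-well nuclei count, and values are medians of duplicate plates.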

[2] = test system: HCC-44
Method in brief: as §1

[3] = test system: NCI-H1437
Method in brief: as §1

[4] = test system: NCI-H3122
Method in brief: as §1

[5] = test system: EBC-1
Method in brief: as §1

[6] = test system: NCI-H2085
Method in brief: as §1

[7] = test system: NCI-H1299
Method in brief: as §1

[8] = test system: LOU-NH91
Method in brief: as §1

[9] = test system: A549
Method in brief: as §1

[10] = test system: NCI-H1703
Method in brief: as §1

[11] = test system: IA-LM
Method in brief: as §1

[12] = test system: Calu-6
Method in brief: as §1

Work on `CCN(CC)CCCCNc1ncc2cc(-c3cc(OC)cc(OC)c3)c(NC(=O)NC(C)(C)C)nc2n1` + Cc1nc(NC(=O)N2CCC[C@H]2C(N)=O)sc1-c1ccnc(C(C)(C)C(F)(F)F)c1 [Alpelisib] (partner 2 µM) yielded a relative viability ([1]; first compound 0.01 µM) of 0.385, a relative viability ([1]; first compound 0.03162 µM) of 0.326 and a relative viability ([1]; first compound 0.1 µM) of 0.757. The relative viability ([1]; first compound 0.3162 µM) was 0.584, the relative viability ([1]; first compound 1 µM) was 0.47 and the relative viability ([2]; first compound 0.01 µM) was 0.93. The relative viability ([2]; first compound 0.03162 µM) was 0.9, the relative viability ([2]; first compound 0.1 µM) was 1.12 and the relative viability ([2]; first compound 0.3162 µM) was 0.87. It also gave a relative viability ([2]; first compound 1 µM) of 0.772, a relative viability ([3]; first compound 0.01 µM) of 1.23 and a relative viability ([3]; first compound 0.03162 µM) of 0.944. It also gave a relative viability ([3]; first compound 0.1 µM) of 1, a relative viability ([3]; first compound 0.3162 µM) of 1.03 and a relative viability ([3]; first compound 1 µM) of 0.947. It also gave a relative viability ([4]; first compound 0.01 µM) of 0.941, a relative viability ([4]; first compound 0.03162 µM) of 0.877 and a relative viability ([4]; first compound 0.1 µM) of 0.906. It also gave a relative viability ([4]; first compound 0.3162 µM) of 0.931, a relative viability ([4]; first compound 1 µM) of 0.824 and a relative viability ([5]; first compound 0.01 µM) of 0.831. For the same compound, the relative viability ([5]; first compound 0.03162 µM) was 0.887, the relative viability ([5]; first compound 0.1 µM) was 0.965 and the relative viability ([5]; first compound 0.3162 µM) was 0.918. The relative viability ([5]; first compound 1 µM) was 0.664, the relative viability ([6]; first compound 0.01 µM) was 1.04 and the relative viability ([6]; first compound 0.03162 µM) was 0.999. It also gave a relative viability ([6]; first compound 0.1 µM) of 1.02, a relative viability ([6]; first compound 0.3162 µM) of 0.983 and a relative viability ([6]; first compound 1 µM) of 0.907. For the same compound, the relative viability ([7]; first compound 0.01 µM) was 1.12, the relative viability ([7]; first compound 0.03162 µM) was 1.12 and the relative viability ([7]; first compound 0.1 µM) was 1.08. The relative viability ([7]; first compound 0.3162 µM) was 1.04, the relative viability ([7]; first compound 1 µM) was 1.04 and the relative viability ([8]; first compound 0.01 µM) was 0.672. The relative viability ([8]; first compound 0.03162 µM) was 0.673, the relative viability ([8]; first compound 0.1 µM) was 0.741 and the relative viability ([8]; first compound 0.3162 µM) was 0.734. It also gave a relative viability ([8]; first compound 1 µM) of 0.696, a relative viability ([9]; first compound 0.01 µM) of 0.726 and a relative viability ([9]; first compound 0.03162 µM) of 0.801. For the same compound, the relative viability ([9]; first compound 0.1 µM) was 0.985, the relative viability ([9]; first compound 0.3162 µM) was 0.828 and the relative viability ([9]; first compound 1 µM) was 0.57. For the same compound, the relative viability ([10]; first compound 0.01 µM) was 0.262, the relative viability ([10]; first compound 0.1 µM) was 0.397 and the relative viability ([10]; first compound 0.3162 µM) was 0.45. For the same compound, the relative viability ([10]; first compound 1 µM) was 0.292, the relative viability ([11]; first compound 0.01 µM) was 0.62 and the relative viability ([11]; first compound 0.03162 µM) was 0.659. It also gave a relative viability ([11]; first compound 0.1 µM) of 0.672, a relative viability ([11]; first compound 0.3162 µM) of 0.836 and a relative viability ([11]; first compound 1 µM) of 0.597. The relative viability ([12]; first compound 0.01 µM) was 1, the relative viability ([12]; first compound 0.03162 µM) was 0.996 and the relative viability ([12]; first compound 0.1 µM) was 0.868. It also gave a relative viability ([12]; first compound 0.3162 µM) of 1.09 and a relative viability ([12]; first compound 1 µM) of 1.01.

For `O=c1cc(-c2cccc3c2Sc2ccccc2S3)oc(N2CCOCC2)c1` + Cc1nc(NC(=O)N2CCC[C@H]2C(N)=O)sc1-c1ccnc(C(C)(C)C(F)(F)F)c1 [Alpelisib] (partner 2 µM), the relative viability ([1]; first compound 0.08 µM) was 0.345, the relative viability ([1]; first compound 0.253 µM) was 0.547 and the relative viability ([1]; first compound 0.8 µM) was 0.269. For the same compound, the relative viability ([1]; first compound 2.53 µM) was 0.312, the relative viability ([1]; first compound 8 µM) was 0.318 and the relative viability ([2]; first compound 0.08 µM) was 0.811. The relative viability ([2]; first compound 0.253 µM) was 0.904, the relative viability ([2]; first compound 0.8 µM) was 0.689 and the relative viability ([2]; first compound 2.53 µM) was 0.685. The relative viability ([2]; first compound 8 µM) was 0.753, the relative viability ([3]; first compound 0.08 µM) was 1.07 and the relative viability ([3]; first compound 0.253 µM) was 1.08. For the same compound, the relative viability ([3]; first compound 0.8 µM) was 1.15, the relative viability ([3]; first compound 2.53 µM) was 0.989 and the relative viability ([3]; first compound 8 µM) was 1.08. For the same compound, the relative viability ([4]; first compound 0.08 µM) was 0.731, the relative viability ([4]; first compound 0.253 µM) was 0.902 and the relative viability ([4]; first compound 0.8 µM) was 0.796. For the same compound, the relative viability ([4]; first compound 2.53 µM) was 0.746, the relative viability ([4]; first compound 8 µM) was 0.881 and the relative viability ([5]; first compound 0.08 µM) was 0.792. For the same compound, the relative viability ([5]; first compound 0.253 µM) was 1.03, the relative viability ([5]; first compound 0.8 µM) was 0.816 and the relative viability ([5]; first compound 2.53 µM) was 0.755. The relative viability ([5]; first compound 8 µM) was 0.522, the relative viability ([6]; first compound 0.08 µM) was 0.907 and the relative viability ([6]; first compound 0.253 µM) was 0.93. For the same compound, the relative viability ([6]; first compound 0.8 µM) was 1.05, the relative viability ([6]; first compound 2.53 µM) was 0.779 and the relative viability ([6]; first compound 8 µM) was 0.72. It also gave a relative viability ([7]; first compound 0.08 µM) of 1.03, a relative viability ([7]; first compound 0.253 µM) of 1.09 and a relative viability ([7]; first compound 0.8 µM) of 1.13. It also gave a relative viability ([7]; first compound 2.53 µM) of 1.03, a relative viability ([7]; first compound 8 µM) of 1.08 and a relative viability ([8]; first compound 0.08 µM) of 0.724. The relative viability ([8]; first compound 0.253 µM) was 0.764, the relative viability ([8]; first compound 0.8 µM) was 0.632 and the relative viability ([8]; first compound 2.53 µM) was 0.593. The relative viability ([8]; first compound 8 µM) was 0.713, the relative viability ([9]; first compound 0.08 µM) was 0.738 and the relative viability ([9]; first compound 0.253 µM) was 0.958. It also gave a relative viability ([9]; first compound 0.8 µM) of 0.857, a relative viability ([9]; first compound 2.53 µM) of 0.659 and a relative viability ([9]; first compound 8 µM) of 0.653. For the same compound, the relative viability ([10]; first compound 0.253 µM) was 0.459, the relative viability ([10]; first compound 0.8 µM) was 0.296 and the relative viability ([10]; first compound 2.53 µM) was 0.245. The relative viability ([10]; first compound 8 µM) was 0.295, the relative viability ([11]; first compound 0.08 µM) was 0.664 and the relative viability ([11]; first compound 0.253 µM) was 1.06. It also gave a relative viability ([11]; first compound 0.8 µM) of 0.852, a relative viability ([11]; first compound 2.53 µM) of 0.862 and a relative viability ([11]; first compound 8 µM) of 0.677. The relative viability ([12]; first compound 0.08 µM) was 0.841, the relative viability ([12]; first compound 0.253 µM) was 1.12 and the relative viability ([12]; first compound 0.8 µM) was 1. The relative viability ([12]; first compound 2.53 µM) was 0.923 and the relative viability ([12]; first compound 8 µM) was 1.06.
